Source: patent publication US20210330611A1, “THERAPY FOR NEUROLOGICAL DISEASES/DISORDERS” (priority 2020, published 2021)
Where a name gives a salt, the structure may show the parent alone. Read-outs that look alike come from different tables or passages of the source.

Key:
[1] = test system: fibrin-induced microglia activation; assay: Image-based assay of fibrin-induced microglia activation (HTS and dose response); format: cell-based, rat; conditions: for inhibition at 10 µM: Rattus norvegicus, Microglia, read-out: Fibrin % inhibition
[2] = test system: LPS-induced microglia activation; assay: Image-based assay of LPS-induced microglia activation (HTS and dose response); format: cell-based, rat; conditions: for inhibition at 10 µM: Rattus norvegicus, Microglia, read-out: LPS % inhibition
[3] = test system: fibrin- and LPS-induced microglia activation; assay: cells; format: cell-based, rat
primary rat microglia [4] = test system: primary rat microglia;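 for Fibrin % cell toxicity: share of dead cells sized under 150 µm2 at 10 µM in fibrin-stimulated microglia HTS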
primary rat microglia [5] = test system: primary rat microglia; remark: listed apart in the source;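 for Fibrin % cell toxicity: share of dead cells sized under 150 µm2 at 10 µM in fibrin-stimulated microglia HTS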
[6] = primary microglia HTS, fibrin stimulation, activation = cell size >800 μm2
[7] = 48 h, primary microglia HTS, LPS stimulation, activation = cell size >800 μm2
[8] = quadrant by fibrin and LPS inhibition in HTS of 1907 compounds
[9] = primary HTS, 10 μM, fibrin-stimulated primary microglia
[10] = primary HTS, 10 μM, LPS-stimulated primary microglia
[11] = primary microglia HTS, fibrin stimulation, compounds at 10 μM
[12] = primary microglia HTS, LPS stimulation, compounds at 10 μM
[13] = quadrant by fibrin and LPS inhibition, HTS at 10 μM
[14] = primary microglia HTS, 10 μM, fibrin-stimulated, cell size >800 μm^2 as marker of activation
[15] = primary microglia HTS, 10 μM, LPS-stimulated, cell size >800 μm^2 as marker of activation
[16] = HTS of 1907 compounds, quadrant by fibrin and LPS inhibition
[17] = classification by fibrin and LPS inhibition, HTS at 10 μM
[18] = primary microglia HTS, fibrin stimulation, increased cell size (>800 μm^2) as marker of activation
[19] = primary microglia HTS, LPS stimulation, increased cell size (>800 μm^2) as marker of activation

CC(C)(C)NC(=O)[C@@H]1CN(Cc2cccnc2)CCN1C[C@@H](O)C[C@@H](Cc1ccccc1)C(=O)N[C@H]1c2ccccc2C[C@H]1O [Indinavir]
inhibition at 10 µM [1, 6]: -22%
inhibition at 10 µM [2, 7]: 5%
Quadrant (FIG. 5b) [3]: Q4
Fibrin % cell toxicity (primary rat microglia [4]; rat): 1%
LPS % cell toxicity (primary rat microglia [5]; rat): 0%

N[C@@H](Cc1ccc(O)c(O)c1)C(=O)O [Levodopa]
inhibition at 10 µM [1, 6]: 17%
inhibition at 10 µM [2, 7]: -5%
Quadrant (FIG. 5b) [3, 8]: Q4
Fibrin % cell toxicity (primary rat microglia [4]; rat): 1%
LPS % cell toxicity (primary rat microglia [5]; rat): 0%

CN(C)CCC(c1ccc(Cl)cc1)c1ccccn1 (centres unmarked) [Chlorphenamine]
inhibition at 10 µM [1, 9]: 0%
inhibition at 10 µM [2, 10]: 13%
Quadrant (FIG. 5b) [3]: Q4
Fibrin % cell toxicity (primary rat microglia [4]; rat): 1%
LPS % cell toxicity (primary rat microglia [5]; rat): 0%

CCOC(=O)c1ccc(N)cc1 [Benzocaine]
inhibition at 10 µM [1, 11]: -24%
inhibition at 10 µM [2, 12]: 7%
Quadrant (FIG. 5b) [3, 13]: Q4
Fibrin % cell toxicity (primary rat microglia [4]; rat): 1%
LPS % cell toxicity (primary rat microglia [5]; rat): 0%

O=C(O)CCCc1ccc(N(CCCl)CCCl)cc1 [Chlorambucil]
inhibition at 10 µM [1, 9]: 8%
inhibition at 10 µM [2, 10]: -7%
Quadrant (FIG. 5b) ([3]; primary HTS, 10 μM): Q4
Fibrin % cell toxicity (primary rat microglia [4]; rat): 1%
LPS % cell toxicity (primary rat microglia [5]; rat): 0%

C[C@]12C=CC(=O)N[C@@H]1CC[C@@H]1[C@@H]2CC[C@]2(C)[C@@H](C(=O)Nc3cc(C(F)(F)F)ccc3C(F)(F)F)CC[C@@H]12 [Dutasteride]
inhibition at 10 µM [1]: 7%
inhibition at 10 µM [2]: 22%
Quadrant (FIG. 5b) [3]: Q4
Fibrin % cell toxicity (primary rat microglia [4]; rat): 1%
LPS % cell toxicity (primary rat microglia [5]; rat): 0%

Clc1cccc(Cl)c1N=C1NCCN1 [Clonidine]
inhibition at 10 µM [1]: -22%
inhibition at 10 µM [2]: 14%
Quadrant (FIG. 5b) [3]: Q4
Fibrin % cell toxicity (primary rat microglia [4]; rat): 1%
LPS % cell toxicity (primary rat microglia [5]; rat): 0%

CC[N+](C)(C)Cc1ccccc1Br [Bretylium]
inhibition at 10 µM [1]: -26%
inhibition at 10 µM [2]: -9%
Quadrant (FIG. 5b) [3]: Q4
Fibrin % cell toxicity (primary rat microglia [4]; rat): 0%
LPS % cell toxicity (primary rat microglia [5]; rat): 0%

Cn1cnc([N+](=O)[O-])c1Sc1ncnc2nc[nH]c12 [Azathioprine]
inhibition at 10 µM [1]: -14%
inhibition at 10 µM [2]: 16%
Quadrant (FIG. 5b) [3]: Q4
Fibrin % cell toxicity (primary rat microglia [4]; rat): 0%
LPS % cell toxicity (primary rat microglia [5]; rat): 0%

CN(C)CCCN1c2ccccc2Sc2ccc(Cl)cc21.Cl
Fibrin % inhibition ([1]; 10 µM): 9%
LPS % inhibition ([2]; 10 µM): 25%
Quadrant (FIG. 5b) [3]: Q4
Fibrin % cell toxicity (primary rat microglia [4]): 2%
LPS % cell toxicity (primary rat microglia [5]): 1%

CC(=O)Nc1ccccc1 [Acetanilide]
inhibition at 10 µM [1]: -31%
inhibition at 10 µM [2]: 9%
Quadrant (FIG. 5b) [3]: Q4
Fibrin % cell toxicity (primary rat microglia [4]; rat): 0%
LPS % cell toxicity (primary rat microglia [5]; rat): 0%

CC(C)(C#N)c1cc(Cn2cncn2)cc(C(C)(C)C#N)c1 [Anastrozole]
inhibition at 10 µM [1, 11]: 31%
inhibition at 10 µM [2, 12]: 16%
Quadrant (FIG. 5b) [3, 13]: Q4
Fibrin % cell toxicity (primary rat microglia [4]; rat): 1%
LPS % cell toxicity (primary rat microglia [5]; rat): 0%

N[C@@H](Cc1ccc(O)cc1)C(=O)O [Tyrosine]
inhibition at 10 µM [1, 14]: -7%
inhibition at 10 µM [2, 15]: 21%
Quadrant (FIG. 5b) [3, 16]: Q4
Fibrin % cell toxicity (primary rat microglia [4]; rat): 1%
LPS % cell toxicity (primary rat microglia [5]; rat): 1%

C[C@H]1O[C@@H](n2cc(F)c(=O)[nH]c2=O)[C@H](O)[C@@H]1O [5-fluoro-5′-deoxyuridine, Doxifluridine]
Fibrin % inhibition [1, 11]: −27%
LPS % inhibition [2, 12]: 9%
Quadrant (FIG. 5b) [3, 13]: Q4
Fibrin % cell toxicity (primary rat microglia [4]): 1%
LPS % cell toxicity (primary rat microglia [5]): 0%

COc1cc(NC(C)CCCN)c2ncccc2c1 (centres unmarked) [Primaquine]
inhibition at 10 µM [1]: -58%
inhibition at 10 µM ([2]; 48 h): 7%
Quadrant (FIG. 5b) [3]: Q4
Fibrin % cell toxicity (primary rat microglia [4]; rat): 0%
LPS % cell toxicity (primary rat microglia [5]; rat): 0%

CCOC(=O)OC(C)OC1=C(C(=O)Nc2ccccn2)N(C)S(=O)(=O)c2ccccc21 (centres unmarked) [Ampiroxicam]
inhibition at 10 µM [1, 11]: -9%
inhibition at 10 µM [2, 12]: 14%
Quadrant (FIG. 5b) [3, 13]: Q4
Fibrin % cell toxicity (primary rat microglia [4]; rat): 1%
LPS % cell toxicity (primary rat microglia [5]; rat): 0%

O.OC[C@@H](O)[C@@H](O[C@@H]1O[C@H](CO)[C@H](O)[C@H](O)[C@H]1O)[C@H](O)[C@@H](O)CO [D-lactitol Monohydrate]
Fibrin % inhibition [1, 11]: 11%
LPS % inhibition [2, 12]: 16%
Quadrant (FIG. 5b) [3, 17]: Q4
Fibrin % cell toxicity (primary rat microglia [4]): 1%
LPS % cell toxicity (primary rat microglia [5]): 0%

CCCCc1nc(Cl)c(CO)n1Cc1ccc(-c2ccccc2-c2nnn[nH]2)cc1 [Losartan, Losartan Potassium]
Fibrin % inhibition [1, 18]: −3%
LPS % inhibition [2, 19]: 19%
Quadrant (FIG. 5b) [3, 8]: Q4
Fibrin % cell toxicity (primary rat microglia [4]): 1%
LPS % cell toxicity (primary rat microglia [5]): 1%

COC(C)(C)CCC[C@H](C)C/C=C/C(C)=C/C(=O)OC(C)C [Methoprene (s)]
Fibrin % inhibition [1, 18]: −9%
LPS % inhibition [2, 19]: 12%
Quadrant (FIG. 5b) [3, 8]: Q4
Fibrin % cell toxicity (primary rat microglia [4]): 1%
LPS % cell toxicity (primary rat microglia [5]): 0%

CC[C@]1(O)C[C@H]2CN(CCc3c([nH]c4ccccc34)[C@@](C(=O)OC)(c3cc4c(cc3OC)N(C=O)[C@H]3[C@@](O)(C(=O)OC)[C@H](OC(C)=O)[C@]5(CC)C=CCN6CC[C@]43[C@@H]65)C2)C1 [Vincristine Sulfate]
Fibrin % inhibition ([1]; primary microglia HTS, fibrin stimulation, compounds at 10 μM, 10 µM): 108%
LPS % inhibition ([2]; primary microglia HTS, LPS stimulation, compounds at 10 μM, 10 µM): 119%
Quadrant (FIG. 5b) [3, 13]: Q2
Fibrin % cell toxicity (primary rat microglia [4]; rat): 16%
LPS % cell toxicity (primary rat microglia [5]; rat): 7%

COc1ccc(CN(CCN(C)C)c2ncccn2)cc1 [Thonzylamine Hydrochloride]
inhibition at 10 µM [1, 14]: -21%
inhibition at 10 µM [2, 15]: 6%
Quadrant (FIG. 5b) [3, 16]: Q4
Fibrin % cell toxicity (primary rat microglia [4]; rat): 0%
LPS % cell toxicity (primary rat microglia [5]; rat): 0%

CCC1=C(C)CN(C(=O)NCCc2ccc(S(=O)(=O)NC(=O)N[C@H]3CC[C@H](C)CC3)cc2)C1=O [Glimepiride]
inhibition at 10 µM [1, 6]: 0%
inhibition at 10 µM [2, 7]: 21%
Quadrant (FIG. 5b) [3, 8]: Q4
Fibrin % cell toxicity (primary rat microglia [4]; rat): 1%
LPS % cell toxicity (primary rat microglia [5]; rat): 0%

CO[C@H]1/C=C/O[C@@]2(C)Oc3c(C)c(O)c4c(O)c(c(/C=N/N5CCN(C)CC5)c(O)c4c3C2=O)NC(=O)/C(C)=C\C=C\[C@H](C)[C@H](O)[C@@H](C)[C@@H](O)[C@@H](C)[C@H](OC(C)=O)[C@@H]1C [Rifampin]
Fibrin % inhibition [1]: 8%
LPS % inhibition [2]: 20%
Quadrant (FIG. 5b) [3]: Q4
Fibrin % cell toxicity (primary rat microglia [4]; rat): 1%
LPS % cell toxicity (primary rat microglia [5]; rat): 0%

CC(CCc1ccccc1)NCC(O)c1ccc(O)c(C(N)=O)c1 (centres unmarked) [Labetalol]
inhibition at 10 µM [1]: 32%
inhibition at 10 µM ([2]; 48 h): 30%
Quadrant (FIG. 5b) [3]: Q4
Fibrin % cell toxicity (primary rat microglia [4]; rat): 1%
LPS % cell toxicity (primary rat microglia [5]; rat): 1%

Nc1ccn([C@@H]2O[C@H](CO)[C@@H](O)[C@@H]2O)c(=O)n1 [Cytarabine]
inhibition at 10 µM [1, 11]: -19%
inhibition at 10 µM [2, 12]: 14%
Quadrant (FIG. 5b) [3, 17]: Q4
Fibrin % cell toxicity (primary rat microglia [4]; rat): 0%
LPS % cell toxicity (primary rat microglia [5]; rat): 0%
